According to US20210023223A1, “HYDROCARBON / LIPID - CAROTENOID COMPLEXES” (IP SCIENCE LIMITED, priority 2018, published 2021):

Legend:
[1] = Oil volume needed to cover water surface; assay type: physicochemical; conditions: vs unmodified olive oil
Description: The other way to assess changes in oil viscosity, caused by carotenoids, would be to measure how much oil would be needed to cover a water surface of the same size. The lower viscosity of the oil the more spreadable it will be, and consequently less of it would be needed to cover this surface. Therefore, by measuring how much oil would be required to cover a certain surface of water we can asses how deep changes in the lipid folding were made by incorporating carotenoids.
An additional nine heating experiments were carried out when either pure Napolina olive oil, Napolina olive oil containing Astaxanthin (7 mg/ml), or Napolina olive oil containing Lycopene (7 mg/ml) was carefully poured over the surface of the water in order to prevent evaporation. The amount of oil required to completely cover the surface of the 100 ml water sample in the cup (diameter—7.4 cm) was measured (15 ml Falcon laboratory tubes and 1 ml Pipetman pitettes were used) and recorded for each oil type. The thickness of the resulting oil film (necessary to completely cover water surface) was then calculated. Temperature change curves were compared for uncovered water and water samples overlayed with three varieties of oil at heating temperatures of 200° C., 250° C. and 300° C. Water samples overlaid with oils were heated until water reached boiling point (usually at 99° C.). […]

[2] = tested on: individuals with a moderate hyperlipidemia; assay: Clinical Trial DHA-Lycopene, 4 weeks; assay type: in vivo, human; conditions: medians, DHA 250 mg and/or lycopene 7 mg once a day
Protocol: To validate this, a clinical trial was undertaken. 32 individuals aged 40-65 years old with a moderate hyperlipidemia (serum triglycerides, TG, >150 mg/dl and LDL from 130 to 160 mg/dl). They were randomised and split in four groups of 8: • The first was supplemented with a 250 mg of conventional formulation of DHA without lycopene (CF-DHA), • the second with 7 mg of lycopene, • the third with 250 mg of DHA and 7 mg of lycopene co-ingested at the same time but as two separate products, and • the fourth group received 7 mg lycopene formulated with 250 mg of DHA (LF-DHA). All products were taken once a day with the main meal. The duration of the trial was for 4 weeks.

[3] = tested on: moderately obese volunteers; assay: Inflammatory Oxidative Damage (IOD) of serum; assay type: in vivo, human
Protocol: (§1) Study Design. The total number of volunteers recruited to take part in the study was 18 (9 male and 9 female subjects) Caucasians 40-67 years old.
(§2) Products Formulated with Lycopene was developed and made by Lycotec Ltd. (Cambridge, United Kingdom). The daily dose was 1 capsule of 20 mg of lycopene, and it was taken with the main meal of the day. The period of administration was 1 month.
Serum samples were incubated overnight in 0.05 M PBS acetate buffer (pH 5.6) to imitate the type of oxidative damage, which occurs during the release of lysosomes following neutrophil degranulation. The following morning the reaction was stopped using trichloroacetic acid. The concentration of the end products such as malonic dialdehyde (MDA), and other possible thiobarbituric acid reactive substances (TBARS), was then measured by colorimetry using reagents and kits from Cayman Chemical (MC, USA).

[4] = Size of Canola oil lipid droplets, microscopy; assay type: physicochemical
Description: (§3) For measurement of lipid droplets and fat globules and quantification of their size binocular microscope Olympus BX41 was used with Cell^B software for morphometric analysis. All parameters were collected from 10 randomly selected microscopic fields at ×1000).
(§4) The effect of adding lycopene into another polyunsaturated oil, in this case cod liver oil, was a dose-dependent increase in the size of its lipid structures. For Olive and Sunflower oils this increase in diameter caused by lycopene could reach 20 fold, for Canola and Cod Liver oil it was 50 or 100 fold.

[5] = Heating dairy butter to boiling point; assay type: physicochemical
Protocol: Small pieces of butter (about 1 g) were placed in a metallic tray. They were heated to 350° C. (Revotherm, Scientific Instruments Ltd.) and boiled for 3 minutes. Time taken to reach boiling point was fixed with a laboratory timer (QUANTUM).

[6] = Size of Cod Liver oil lipid structures, microscopy; assay type: physicochemical
Description: as §3, §4

[7] = Size of lipid droplets of dairy butter, microscopy; assay type: physicochemical
Description: as §3
Incorporation of lycopene into the butter led to a significant increase in the size of its lipid droplets and many reached more than 100 or even 300 fold of their diameter. This effect was dose-dependent, and can already be observed for less than 1 molecule of lycopene to 224,000 molecules of butter triglycerides.

[8] = Size of Olive oil lipid droplets, microscopy; assay type: physicochemical; set-up: Olive oil lipid droplets, Droplet square: unit not given here
Protocol: as §3
When lycopene was added to olive oil, rich with monounsaturated fatty acids, it increased the size of its lipid droplets in a dose-dependent manner, and table 4.

[9] = Acid induced degradation at pH 2.5, gas chromatography; assay type: physicochemical; conditions: lycopene 1 mg or 3 mg per 1 gram of DHA; 37° C.
Melting time at 37° C. = assay type: physicochemical
Protocol: Approximately 20 mg of butter, or pork fat, or beef fat, or cocoa butter, or chocolate, with or without certain concentrations of carotenoids, were placed on the surface of the laboratory slides and incubated at 37° C. in a laboratory incubator (TLK39).
Results presented in FIG. 15 show three different carotenoids—lycopene, lutein and astaxanthin, can reduce, albeit to a different degree, the melting time of dark chocolate regardless of its tempering protocols: Protocol I—28° C., Protocol II—29° C., Protocol III—30° C.

[10] = tested on: moderately obese volunteers; assay: LDL-Px, serum LDL peroxidase proteins; assay type: in vivo, human
Protocol: as §1, §2
LDL-Px and Lipoprotein O2. Activity of serum LDL peroxidase proteins, which include IgG with superoxide dismutase activity, was measured as described previously. Plasma oxygen, which carried by blood lipids/lipoproteins was measured by catalymetry.

[11] = after 20 mg lycopene daily for one month
[12] = lycopene dose 0.1 per 30 g of Olive oil
[13] = lycopene dose 0.5 per 30 g of Olive oil
[14] = lycopene dose 1.0 per 30 g of Olive oil
[15] = lycopene dose 2.0 per 30 g of Olive oil
[16] = lycopene dose 3.5 per 30 g of Olive oil
[17] = lycopene dose 7.0 per 30 g of Olive oil
[18] = lycopene dose 10.0 per 30 g of Olive oil

For `CC(C)=CCC/C(C)=C/C=C/C(C)=C/C=C/C(C)=C/C=C/C=C(C)/C=C/C=C(C)/C=C/C=C(\C)CCC=C(C)C` [Lycopene], the “Reduction of oil required to cover the same water area” value [1] was ~60%, the LDL ([2]; 0 w) was 156.0 mg/dL and the Triglycerides ([2]; 0 w) was 203.5 mg/dL. For the same compound, the LDL ([2]; 4 w) was 155.5 mg/dL, the Triglycerides ([2]; 4 w) was 190.0 mg/dL and the IOD [3, 11] was 60 ± 5.8 μM MDA. The IOD ([3]; before, n = 18) was 107 ± 11.6 μM MDA, the “Increase in lipid droplet diameter” value [4] was 50 fold and the “Reduction of time to bring butter to its boiling point” value ([5]; number of lycopene molecules increased to 10) was 75%. The “Reduction of time to bring butter to its boiling point” value ([5]; one molecule of lycopene to more than 22,000 molecules of butter triglycerides) was 25%, the “Increase in lipid droplet diameter” value [6] was 100 fold and the “Size of butter lipid droplets, Mean” value ([7]; lycopene dose 0.1 per 30 g of butter) was 34.32 μm. For the same compound, the “Size of butter lipid droplets, Mean” value ([7]; lycopene dose 0.5 per 30 g of butter) was 60.39 μm, the “Size of butter lipid droplets, Mean” value ([7]; lycopene dose 1.0 per 30 g of butter) was 92.35 μm and the “Size of butter lipid droplets, Mean” value ([7]; lycopene dose 3.5 per 30 g of butter) was 90.18 μm. For the same compound, the “Size of butter lipid droplets, Mean” value ([7]; lycopene dose 7.0 per 30 g of butter) was 178.95 μm, the “Size of butter lipid droplets, Mean” value ([7]; lycopene dose 10.0 per 30 g of butter) was 141.17 μm and the “Increase in the size of butter lipid droplets (diameter)” value ([7]; many droplets, 'more than 100 or even 300 fold') was “more than 100 fold”. For the same compound, the “Olive oil lipid droplets, Droplet square” value [8, 12] was 27.2, the “Size of Olive oil lipid droplets, Mean” value [8, 12] was 46.24 μm and the “Olive oil lipid droplets, Droplet square” value [8, 13] was 36.36. For the same compound, the “Size of Olive oil lipid droplets, Mean” value [8, 13] was 40.00 μm, the “Olive oil lipid droplets, Droplet square” value [8, 14] was 10.29 and the “Size of Olive oil lipid droplets, Mean” value [8, 14] was 185.13 μm. The “Olive oil lipid droplets, Droplet square” value [8, 15] was 17.39, the “Size of Olive oil lipid droplets, Mean” value [8, 15] was 260.80 μm and the “Olive oil lipid droplets, Droplet square” value [8, 16] was 24.05. For the same compound, the “Size of Olive oil lipid droplets, Mean” value [8, 16] was 457.00 μm, the “Olive oil lipid droplets, Droplet square” value [8, 17] was 61.31 and the “Size of Olive oil lipid droplets, Mean” value [8, 17] was 490.50 μm. For the same compound, the “Olive oil lipid droplets, Droplet square” value [8, 18] was 36.77, the “Size of Olive oil lipid droplets, Mean” value [8, 18] was 367.70 μm and the “Increase in lipid droplet diameter, could reach” value ([8]; olive oil) was 20 fold. For the same compound, the “Degradation of DHA at pH2.5” value [9] was “completely prevented”, the “Melting time of dark chocolate” value (Melting time at 37° C.) was 8 min and the LDL-Px [10, 11] was 286 ± 29^ ELISA × 10^3. The LDL-Px ([10]; before, n = 18) was 545 ± 49^ ELISA × 10^3.
